For the data set, the system named is Rattus norvegicus. The settings on record: for LD50: acute.
Setting [1] is: subchronic, duration: 90 days, oral, gavage, M/F, hematological.
[2] abbreviates: subchronic, duration: 90 days, oral, diet, M/F, Sprague-Dawley, histopathology: nonneoplastic.
Where [3] appears, read: subchronic, duration: 90 days, oral, diet, M/F, Sprague-Dawley, no effects.
Setting [4] is: subchronic, duration: 90 days, oral, diet, M/F, no effects.
The mark [5] stands for this setting: subchronic, duration: 13 weeks, oral, diet, M/F, Wistar, hematological.
Setting [6] is: subchronic, duration: 90 days, oral, diet, M/F, Wistar, hematological.
Where [7] appears, read: chronic, duration: 2 years, oral, diet.

“And” between values parts separate entries of the source, which are not always exact repeats. Equal entries are not always repeated. Structures can show the parent of a compound that is named as a salt. Where only a bound is given, the exact number is not on record here.

As for `CCOC(=O)CNC(=O)[C@@H]1C[C@H](C)CC[C@H]1C(C)C`, the NOAEL under setting [1] was found to be 75 mg/kg-day.

As to `CC(C)[C@@H]1CC[C@@H](C)C[C@H]1C(=O)NCCc1ccccn1` (relative stereo), the NOAEL under setting [2] amounted to 5 mg/kg-day.

`O=c1[nH]sc2ccccc12` [1,2-Benzisothiazolin-3-one] gave an NOAEL (subchronic, duration: 90 days, oral, gavage, M/F, Wistar, histopathology: nonneoplastic) of 10 mg/kg-day.

As to `CCC(S)S` [1,?1-?Propanedithiol], the NOAEL under setting [3] is 0.705 mg/kg-day (2×) and 0.703 mg/kg-day (2×).

`CC(=O)c1ccccn1` [1-(2-Pyridyl)-1-ethanone] yielded an NOAEL under setting [1] of 37 mg/kg-day.

As to `CC(=O)c1ccc(C)[nH]1` [1-(5-Methyl-1H-pyrrol-2-yl)ethan-1-one], where the note is “subchronic, duration: 90 days, oral, gavage, M, hematological”, the no-observed-adverse-effect level (NOAEL) was 48 mg/kg-day.

Turning to `CC(=O)c1ccc2ccccc2c1` [2'-Acetonaphthone], the NOAEL runs as follows: (subchronic, duration: 90 days) 33 mg/kg-day; under setting [4], 33 mg/kg-day.

For `C[C@@H]1O[C@@H](O[C@H]2[C@H](O[C@@H]([C@H](O)[C@@H](O)C=O)[C@H](O)CO)O[C@H](CO)[C@H](O)[C@@H]2O)[C@@H](O)[C@H](O)[C@@H]1O` [2'-Fucosyllactose], the NOAEL (subchronic, duration: 90 days, oral, gavage, M/F, Wistar, organ weight) worked out at 2000 mg/kg-day.

Regarding `CC1CCCCC1NC(=O)c1c(F)c(F)c(F)c(F)c1F` (stereo not drawn) [2,3,4,5,6-Pentafluoro-N-(2-methylcyclohexyl)benzamide], the NOAEL (subchronic, duration: 90 days, oral, diet, M/F, Wistar, clinical signs) was determined as 55 mg/kg-day.

Take `CC(C)CC1NC(CC(C)C)SC(CC(C)C)S1` (stereo not drawn) [2,4,6-Triisobutyl-5,6-dihydro-4H-1,3,5-dithiazine]: where the note is “subchronic, duration: 90 days, oral, diet, M, histopathology: nonneoplastic”, the NOAEL was found to be 9.3 mg/kg-day.

`NS(=O)(=O)c1ccccc1C(F)(F)F` [2-(Trifluoromethyl)benzenesulfonamide] yielded an NOAEL (short-term, duration: 28 days, organ weight) of 15 mg/kg-day.

For the compound `O=Cc1cc2ccccc2o1` [2-Benzofurancarboxaldehyde], the NOEL (subchronic, duration: 90 days, oral, diet) was 25 mg/kg-day.

`SCc1ccco1` [2-Furylmethanethiol] came in with an NOAEL (subchronic, duration: 90 days, oral, gavage, M/F, body weight) of 3 mg/kg-day.

`CCCCCC(C)=O` [2-Heptanone]: the NOAEL (subchronic, duration: 13 weeks, oral, gavage, M/F, organ weight) was 20 mg/kg-day.

Take `CC(=O)SC1=C(C)OCC1` [2-Methyl-3-thioacetoxy-4,5-dihydrofuran]: the NOAEL under setting [5] is 1.4 mg/kg-day. The same compound displayed an NOEL under setting [6] of 1.4 mg/kg-day.

`CC(C=O)=Cc1ccccc1` [2-Methylcinnamic aldehyde] came in with an NOAEL under setting [4] of 220 mg/kg-day.

Consider `CCCCCCCCCC(C)=O` [2-Undecanone], for which the NOAEL (subchronic, duration: 90 days, oral, clinical signs) was 50 mg/kg-day.

In turn, `CC1=C(S)CCO1` [2-methyl-4,5-dihydrofuran-3-thiol] came in with an NOAEL under setting [5] of 1.4 mg/kg-day. The compound further returned an NOEL under setting [6] of 1.4 mg/kg-day.

As for `CCC1=C(O)C(=O)C(C)O1` (stereo not drawn) [3(2H)-Furanone, 5-ethyl-4-hydroxy-2-methyl-], the NOAEL (chronic, duration: 2 years, M/F, body weight) came to 200 mg/kg-day.

Compound `Cc1ccc(C(C)CC=O)o1` (stereo not drawn) [3-(5-Methyl-2-furyl)butanal] registered an NOAEL (subchronic, duration: 90 days, oral, diet, M/F, Crj:CD, clinical signs) of 5.9 mg/kg-day.

On to `Cn1cc(C(F)(F)F)cc(Cl)c1=O` [3-Chloro-1-methyl-5-(trifluoromethyl)pyridin-2-one], for which, for the setting “oral, F, Wistar, mortality”, the LD50 worked out at 124 mg/kg.

On to `CCCCCC/C=C/C(C)=O` [3-Decen-2-one], for which the LD50 (oral, mortality) was over 5000 mg/kg-day. The NOAEL (developmental, development) is at least 1000 mg/kg-day.

Compound `Cc1sc2nc(=O)[nH]c(N)c2c1C` [4-Amino-5,6-dimethylthieno(2,3-d)pyrimidin-2(1H)-one] came in with an NOAEL (subchronic, duration: 13 weeks, oral, diet, M/F, Sprague-Dawley, no effects) of 60 mg/kg-day.

In the case of `COc1cc(C=O)ccc1O` [4-Hydroxy-3-methoxybenzaldehyde], the NOAEL (chronic, duration: 2 years) turned out to be 1000 mg/kg-day and the NOAEL (subchronic, duration: 13 weeks, oral, gavage, no effects) was 400 mg/kg-day.

Under “chronic, duration: 2 years, oral, diet, M/F, Sprague-Dawley, body weight”, `CC1=C(O)C(=O)CO1` [4-Hydroxy-5-methyl-3-furanone] came in with an NOAEL of 200 mg/kg-day.

Regarding `CC(C)(C)C1CCC(O)CC1` (stereo not drawn) [4-tert-Butylcyclohexanol], the NOAEL by setting is: (reproduction developmental, clinical signs) 31.5 mg/kg-day; (short-term, duration: 28 days, clinical signs) 30 mg/kg-day.

As for `Cc1ccc2oc(=O)ccc2c1` [6-Methyl coumarin], the NOEL (subchronic, duration: 13 weeks) was determined as 150 mg/kg-day.

In turn, `C=CCc1ccc(OC(C)=O)c(OC)c1` [(2-Methoxy-4-prop-2-enylphenyl) acetate] yielded an NOAEL (subchronic, duration: 90 days, clinical chemistry) of 300 mg/kg-day.

For `C=C1CC[C@H]2O[C@]2(C)CC[C@@H]2[C@@H]1CC2(C)C` [(-)Carophyllene oxide], the NOAEL under setting [2] turned out to be 109 mg/kg-day.

For the compound `C=C(C)[C@@H]1CC=C(C)CC1` [(S)-Limonene], for the setting “chronic, duration: 103 weeks, oral, gavage, F, mortality”, the NOAEL came out at 215 mg/kg-day.

Take `CC(=O)N[C@@H]([C@@H](O)[C@H](O)[C@H](O)CO)[C@@H](O)CC(=O)C(=O)O` [Aceneuramic acid]: the NOAEL (subchronic, duration: 13 weeks, oral, diet, M/F, Crj:CD, food consumption) turned out to be 493 mg/kg-day.

As to `CC=O` [Acetaldehyde], the NOAEL (subchronic, duration: 11 weeks, oral, drinking water, other) was found to be 120 mg/kg-day.

With `CC(=NC#N)N(C)Cc1ccc(Cl)nc1` [Acetamiprid], for the setting “reproduction developmental, duration: 16 days, oral, gavage, F, other”, the NOAEL stood at 2.5 mg/kg-day.

`CCCCOC(=O)CC(CC(=O)OCCCC)(OC(C)=O)C(=O)OCCCC` [Acetyl tributyl citrate]: the NOAEL (subchronic, duration: 90 days, oral, body weight) is 100 mg/kg-day.

For the compound `CC1=C(/C=C/C(C)=C/C=C/C(C)=C/C=C/C=C(C)/C=C/C=C(\C)C=O)C(C)(C)CCC1` [Apocarotenal], for the setting “subchronic, duration: 13 weeks, histopathology: nonneoplastic”, the NOAEL came to 30 mg/kg-day. Further, the LOAEL (subchronic, duration: 13 weeks, oral, M/F, Sprague-Dawley, histopathology: nonneoplastic) was 10 mg/kg-day.

Regarding `CC(=O)Nc1ccc(S(=O)(=O)[O-])c2cc(S(=O)(=O)[O-])c(N=Nc3ccc(N=Nc4ccc(S(=O)(=O)[O-])cc4)c4ccc(S(=O)(=O)[O-])cc34)c(O)c12.[Na+].[Na+].[Na+].[Na+]` [Black PN], under “chronic, duration: 2 years, oral, diet, M/F, no effects”, the NOAEL amounted to 500 mg/kg-day.

Regarding `O=C1C(c2[nH]c3ccc(S(=O)(=O)[O-])cc3c2O)=Nc2ccc(S(=O)(=O)[O-])cc21.[Na+].[Na+]` [C.I. Acid Blue 74], the NOAEL is, setting by setting: under setting [7], 500 mg/kg-day; (chronic, duration: 2 years, oral, diet, growth) 500 mg/kg-day.

`OC1OC[C@@H](O)[C@@H](O)[C@H]1O` (stereo partly drawn) [D-Ribose] displayed an NOAEL (subchronic, duration: 90 days, oral, diet, M/F, Wistar, body weight) of 3600 mg/kg-day.

Compound `CCCCC(CC)COC(=O)c1ccccc1C(=O)OCC(CC)CCCC` (stereo not drawn) [Di(2-ethylhexyl) phthalate] had an NOAEL (developmental, Sprague-Dawley, development) of 5 mg/kg-day.

Regarding `CC(C)CCCCCCOC(=O)c1ccccc1C(=O)OCCCCCCC(C)C` [Diisononyl phthalate], the NOAEL (chronic, duration: 2 years, M/F, Fischer 344, histopathology: nonneoplastic) turned out to be 15 mg/kg-day.

Turning to `CCOC(=O)CCCSC(C)=O` [Ethyl 4-(acetylthio)butyrate], the NOEL (subchronic, duration: 13 weeks, oral, diet) was determined as 6.5 mg/kg-day. The NOAEL (subchronic, duration: 90 days, oral) was 6.63 mg/kg-day and the NOAEL under setting [4] turned out to be 6.63 mg/kg-day.

Turning to `C#CCN1C(=O)COc2cc(F)c(N3C(=O)C4=C(CCCC4)C3=O)cc21` [Flumioxazin], the NOAEL was found to be 1.8 mg/kg-day (chronic, duration: 2 years, hematological); 3 mg/kg-day (developmental, development); 2.2 mg/kg-day (subchronic, duration: 90 days, oral, hematological).

The compound `O=Cc1ccco1` [Furfural] yielded an NOEL (subchronic, duration: 90 days, oral, diet, M/F, Fischer 344, hematological) of 54 mg/kg-day.

With `OC[C@H]1O[C@H](OC[C@H]2O[C@@H](O)[C@@H](O)[C@@H](O)[C@@H]2O[C@@H]2O[C@H](CO)[C@@H](O)[C@H](O)[C@@H]2O)[C@H](O)[C@@H](O)[C@H]1O` [Galactomannan], the NOEL (short-term, duration: 28 days, M/F, Sprague-Dawley, clinical chemistry) was determined as 230 mg/kg-day.

In turn, `Cl.N[C@@H](C=O)[C@@H](O)[C@H](O)[C@H](O)CO` [Glucosamine hydrochloride] showed an NOAEL (chronic, duration: 52 weeks) of 2130 mg/kg-day.

The compound `O=C1O[C@H]([C@H](O)CO)C(O)=C1O` [Isoascorbic acid] yielded an NOAEL (chronic, duration: 2 years, oral, drinking water, M/F, Fischer 344, body weight) of 650 mg/kg-day.

`CCCCC/C=C/C/C=C/CCCCCCCC(=O)O[C@H](COC(=O)CCCCCCCCCCCCCCC)COP(=O)([O-])OCC[N+](C)(C)C` [Lecithin] returned an NOAEL (chronic, duration: 24 weeks, oral, gavage, Wistar, no effects) of 3750 mg/kg-day.

Under setting [3], `CCCCCC1C(=O)CCC1CC(=O)OC` (stereo not drawn) [Methyl dihydrojasmonate] gave an NOAEL of 100 mg/kg-day.

Turning to `CCCCCCCCCCCC[N+](C)(C)[O-]` [N,N-Dimethyldodecylamine-N-oxide], the NOAEL under setting [7] stood at 50 mg/kg-day.

`CC(C)=CCC/C(C)=C/CNC(=O)C1CC1` [N-3,7-Dimethyl-2,6-octadienyl cyclopropylcarboxamide, (2E)-]: under setting [4], the NOAEL amounted to 73.3 mg/kg-day.

For `CCCC(CCC)NC(=O)c1ccc2c(c1)OCO2` [N-(1-Propylbutyl)-1,3-benzodioxole-5-carboxamide], for the setting “chronic, duration: 93 days”, the NOEL amounted to 20 mg/kg-day.

Where the note is “repeat dose other, no effects”, `COc1ccc(CCC(=O)c2c(O)cc(O[C@@H]3O[C@H](CO)[C@@H](O)[C@H](O)[C@H]3O[C@@H]3O[C@@H](C)[C@H](O)[C@@H](O)[C@H]3O)cc2O)cc1O` [Neohesperidin dihydrochalcone] displayed an NOAEL of 500 mg/kg-day.

Regarding `O=C1CN(/N=C/c2ccc([N+](=O)[O-])o2)C(=O)N1` [Nitrofurantoin], the LEL (reproduction developmental, oral, reproduction) is 10 mg/kg-day.

As to `C1CCNCC1` [Piperidine], the NOAEL (subchronic, duration: 90 days, oral, M/F, Sprague-Dawley, clinical chemistry) turned out to be 5 mg/kg-day.

The compound `O=C(/C=C/c1ccc(O)c(O)c1)O[C@H](Cc1ccc(O)c(O)c1)C(=O)O` [Rosmarinic acid] yielded an NOAEL (subchronic, duration: 90 days, oral, gavage, M/F, Sprague-Dawley, no effects) of 300 mg/kg-day.

Under “subchronic, duration: 90 days, oral, diet, M/F, Sprague-Dawley, hematological”, `C=C1CCC2(C(C)C)CC12` (stereo not drawn) [Sabinen] showed an NOAEL of 222 mg/kg-day.

The NOAEL is the highest tested level that showed no adverse finding. The LOAEL is the lowest tested level that showed an adverse finding.

The values above are taken from EPA's ToxValDB 9.5.
